Reference: patent publication US20250214969A1, “PROTEIN DEGRADERS AND USES THEREOF” (Kymera Therapeutics, Inc., priority 2022, published 2025)

Experiments:
BRD4 = biological target: T1, BRD4 (Homo sapiens, UniProt O60885); assay: BRD4 degradation in HEK293 cells (Western blot); type: cell-based; details: lysed after 24, Western blot
T1 construct: endogenous in cells; host or cells: HEK293
Experimental: On day 1, 6.25×10^5 HEK293 cells were seeded per well into a 12-well plate. After 24, cells were lysed in wells with 80 ul of pre-chilled RIPA Lysis buffer (Beyotime, P0013B) with protease/phosphatase inhibitor (Roche 4693116001/Roche 04906837001) for 20 min at 4 degree on a rocker, then spun down at 20,000g at 4 degree for 10 min and the BCA assay was run. 39 ul of supernatant was transferred to a fresh EP tube containing 15 ul of 4X LDS loading buffer and 6 ul 10X reducing agent to make the loading samples. The samples were then heated to 70° C. for 10 minutes, cooled to RT, and stored under−20° C. Samples were loaded with equal amount of protein onto 4-12% Bis -Tris SDS-PAGE 26 wells gel (Novex, WG1403BOX) and the gel was run for 1.5 hours at 120 V. Electrotransfer to NC membrane was completed using wet-transfer method with 250 mA for 80 min and the membrane was blocked in 5% BSA (Solarbio,A8020) with 1X TBST for 1 hour. The samples were incubated with primary antibody prepared in blocking buffer (LI-COR, 927-60001) at 4° C. overnight and the membrane was washed three times with 1X TBST, 5 minutes each. Incubate with secondary antibody for 1 hour at RT (anti-rabbit IgG (Licor,926-32211) 1:5000; anti-mouse IgG (LI-COR, 926-68070)1:5000). The membrance was then washed three times with 1X TBST, 5 minutes each and once with RO H2O, then read on LiCOR.

[1] = biological target: T2, truncated His-MBP-Tev-KLHDC2 (residues 1-363) (Homo sapiens, UniProt Q9Y2U9); assay: KLHDC2 HTRF binding assay; details: 1 nM KLHDC2 (residues 1-363), fluorescein-labeled diglycine peptide probe
T2 construct: truncated His -MBP-Tev-KLHDC2 (residues 1-363) purified from E. coli; made in house; host or cells: E. coli
T2 sequence (Q9Y2U9 1-363): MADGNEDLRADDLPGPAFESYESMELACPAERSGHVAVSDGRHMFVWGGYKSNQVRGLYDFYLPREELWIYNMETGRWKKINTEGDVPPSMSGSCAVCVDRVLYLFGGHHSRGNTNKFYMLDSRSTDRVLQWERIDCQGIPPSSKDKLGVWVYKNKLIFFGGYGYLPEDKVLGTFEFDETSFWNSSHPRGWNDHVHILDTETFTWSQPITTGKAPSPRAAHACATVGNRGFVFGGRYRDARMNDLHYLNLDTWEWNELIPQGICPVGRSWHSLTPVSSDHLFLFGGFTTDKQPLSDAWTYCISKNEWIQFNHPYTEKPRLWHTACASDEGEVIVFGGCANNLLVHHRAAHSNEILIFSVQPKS

[2] = biological target: T2, truncated His-MBP-Tev-KLHDC2 (residues 1-363); assay: KLHDC2 FP competition binding assay; details: 15 nM KLHDC2 (residues 1-363), 10 nM fluorescein-labeled diglycine peptide probe, read-out: KLHDC2 binding Human FP: average external IC50

KLHDC2-dependent BRD4 degradation (BRD4; FIG. 4) | BRD4 degradation (BRD4; FIGS. 2-3) | IC50 [1] | IC50 [2] | Structure (SMILES)
KLHDC2-dependent BRD4 degradation | BRD4 degradation | – | – | Cc1sc2c(c1C)C(c1ccc(Cl)cc1)=N[C@@H](CC(=O)NCCCCCCCCCCCCCCN(C(=O)C1CCCN(c3cncc4ccccc34)C1)c1ccc(=O)n(CC(=O)O)c1)c1nnc(C)n1-2 (stereo partly drawn) [I-481]
– | – | > 5 µM | > 5 µM | Cn1ccc2cccc(-c3ccc(=O)n(CC(=O)O)c3)c21 [I-363]
– | – | < 0.05 µM | > 5 µM | NCCCCCCCCCc1ccc2c(-c3cccc(C(=O)Nc4ccc(=O)n(CC(=O)O)c4)c3)cncc2c1 [I-107]
– | – | > 5 µM | > 5 µM | CS(=O)(=O)c1cccc(-c2ccc(=O)n(CC(=O)O)c2)c1 [I-385]
– | – | > 5 µM | > 5 µM | O=C(O)Cn1cc(-c2ccc3[nH]ncc3c2)ccc1=O [I-387]
– | – | 0.5 to 5 µM | > 5 µM | CC(C)Cn1ccc2c(C(=O)Nc3ccc(=O)n(CC(=O)O)c3)ccnc21 [I-132]
– | – | > 5 µM | > 5 µM | CC(NC(=O)CCC(=O)O)C(=O)c1ccccc1 (stereo not drawn) [I-219]
– | – | 0.5 to 5 µM | > 5 µM | Cc1ccc(C(=O)Nc2ccc(=O)n(CC(=O)O)c2)nc1-c1cccnc1 [I-170]
– | – | 0.05 to 0.5 µM | 0.5 to 5 µM | CNc1cncc(N2CCC[C@H](C(=O)Nc3ccc(Cl)c(CC(=O)O)c3)C2)c1 [I-18]
– | – | > 5 µM | > 5 µM | Cc1c(NC(=O)c2cccc(-c3cccnc3)c2)ccc(=O)n1CC(=O)O [I-70]
– | – | 0.5 to 5 µM | > 5 µM | O=C(O)Cn1cc(NC(=O)[C@@H]2CCCN(c3cccnc3)C2)c(C(F)(F)F)cc1=O [I-63]
– | – | > 5 µM | > 5 µM | O=C(O)Cn1cc(NC(=O)COc2ccccc2Cl)ccc1=O [I-282]
– | – | > 5 µM | > 5 µM | NC(=O)c1ccc(CN2C(=O)CCC2C(=O)O)cc1 (stereo not drawn) [I-222]
– | – | > 5 µM | > 5 µM | O=C(O)Cn1cc(-c2cccc(CO)c2)ccc1=O [I-291]
– | – | > 5 µM | > 5 µM | Cc1cccc(-c2ccc(O)c(CC(=O)O)c2)c1 [I-337]
– | – | > 5 µM | > 5 µM | Cc1cc(=O)n(CC(=O)O)cc1-c1cc(F)c(O)c(F)c1 [I-329]
– | – | < 0.05 µM | 0.05 to 0.5 µM | CCc1cncc(N2CCC[C@H](C(=O)Nc3ccc(=O)n(CC(=O)O)c3)C2)c1 [I-39]
– | – | 0.5 to 5 µM | > 5 µM | O=C(O)Cn1cc(NC(=O)c2nccc3c(Cl)cccc23)ccc1=O [I-248]
– | – | > 5 µM | > 5 µM | Cn1cc(NC(=O)c2cccc(-c3cccnc3)c2)cc(C(=O)O)c1=O [I-31]
– | – | > 5 µM | > 5 µM | CN(C(=O)Cc1ccc(=O)n(CC(=O)O)c1)c1ccccc1 [I-272]
– | – | > 5 µM | > 5 µM | O=C(O)Cn1cc(N2C[C@@]3(CCCN(c4cccnc4)C3)CC2=O)ccc1=O [I-17]
